Assay results from PMC6934184, “Selective DNA-PKcs inhibition extends the therapeutic index of localized radiotherapy and chemotherapy” (The Journal of Clinical Investigation, 2019).

Molecular target: T1, MAP4K3 (GLK) (Homo sapiens, UniProt Q8IVH8)
T1 construct: purchased Thermo Fisher Scientific (Life Technologies) SelectScreen
Assay: SelectScreen LanthaScreen
Format: binding
Conditions: 1 µM
Method in brief: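 Percent values come from Thermo SelectScreen profiling of NU5455, combining activity and binding assays. CSF1R was run in Z'LYTE format at Km app ATP, and CAMK1 in Adapta format with ATP listed at 10.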

T1 sequence (Q8IVH8 whole entry): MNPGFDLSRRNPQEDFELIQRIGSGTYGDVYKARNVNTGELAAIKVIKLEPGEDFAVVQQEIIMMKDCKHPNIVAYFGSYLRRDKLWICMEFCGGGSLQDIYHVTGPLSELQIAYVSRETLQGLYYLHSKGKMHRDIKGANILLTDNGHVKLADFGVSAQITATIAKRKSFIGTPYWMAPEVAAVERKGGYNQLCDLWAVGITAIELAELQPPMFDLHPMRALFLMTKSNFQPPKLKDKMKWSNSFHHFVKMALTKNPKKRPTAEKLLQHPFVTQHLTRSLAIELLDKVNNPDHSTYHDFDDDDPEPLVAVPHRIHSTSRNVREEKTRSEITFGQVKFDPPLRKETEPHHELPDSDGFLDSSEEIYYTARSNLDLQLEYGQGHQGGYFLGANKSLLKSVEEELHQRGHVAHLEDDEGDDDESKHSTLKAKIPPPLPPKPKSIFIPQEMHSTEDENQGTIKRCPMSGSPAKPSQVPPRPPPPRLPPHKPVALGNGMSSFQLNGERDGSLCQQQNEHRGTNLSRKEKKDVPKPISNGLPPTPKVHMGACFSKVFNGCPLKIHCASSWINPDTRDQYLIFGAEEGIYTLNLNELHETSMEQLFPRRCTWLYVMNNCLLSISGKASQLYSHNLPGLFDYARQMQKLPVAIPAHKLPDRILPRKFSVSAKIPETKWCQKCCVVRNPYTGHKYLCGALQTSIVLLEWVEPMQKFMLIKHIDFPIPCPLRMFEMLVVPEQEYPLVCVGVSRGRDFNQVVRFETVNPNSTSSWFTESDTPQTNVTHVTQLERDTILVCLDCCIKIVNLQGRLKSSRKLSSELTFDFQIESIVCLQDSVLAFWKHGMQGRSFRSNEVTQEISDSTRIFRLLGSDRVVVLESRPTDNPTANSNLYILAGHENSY

Compound: CN(C(=O)CN1CCOCC1)c1ccc2sc3c(-c4cccc5c(=O)cc(N6CC7CCC(C6)O7)oc45)cccc3c2c1 [NU5455]
- % displacement: -2.1%
